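Method: 48-hour compound exposure of cells in 96-well plates, five concentrations, linear interpolation of endpoints. GI50 marks 50% less growth.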 Calls of active or inactive are those of the source. Rule as the data show it: active = GI50 up to about 1.1 µM and inactive = higher.

Some test systems named below: MDA-MB-231; HCT-15; Malme-3M; NCI-H226; NCI-H460; SK-MEL-28; RPMI-8226; ACHN; SF-295; UACC-62; A549; SNB-75; SK-MEL-5; U-251; TK-10; UO-31; IGROV-1; RXF 393; EKVX; MOLT-4.
Holding throughout (assay): inhibition of tumour cell growth, NCI panel, 48 h

On to `CC(C)(C)C1=CC(C)(n2[nH]c(=O)n(-c3ccccc3)c2=O)C=C(C(C)(C)C)C1=O`, for which the GI50 in the test with MDA-MB-231 is > 100 µM (inactive); in the test with HCT-15 it was more than 100 µM; in the test with Malme-3M, > 100 µM (inactive); with NCI-H226, > 100 µM (inactive); with NCI-H460, > 100 µM (inactive); in the test on SK-MEL-28, > 100 µM (inactive). Also, the GI50 with RPMI-8226 was 25.2 µM (inactive); with ACHN it was > 100 µM (inactive); with SF-295, > 100 µM (inactive); with UACC-62, 75.3 µM (inactive); with A549, > 100 µM (inactive); in the test on SNB-75 it was 98.4 µM (inactive). The GI50 is > 100 µM (inactive) in the test with SK-MEL-5, > 100 µM (inactive) in the test on U-251, > 100 µM (inactive) with TK-10 and 44.9 µM (inactive) in the test with UO-31.
For `O=C(O)CCC1CCc2cccc3occ1c23` (stereo not drawn), the GI50 with IGROV-1 is > 100 µM (inactive); in the test on HCT-15 it was more than 100 µM; with Malme-3M, > 100 µM (inactive); in the test on NCI-H226, > 100 µM (inactive); in the test with NCI-H460, > 100 µM (inactive); in the test with SK-MEL-28 it was > 100 µM (inactive). Further, the GI50 with RPMI-8226, in the test with ACHN, in the test on SF-295, with UACC-62, in the test with RXF 393 and with A549 was > 100 µM (inactive) in each case. Further, the GI50 in the test on SNB-75, with EKVX, in the test on SK-MEL-5, with MOLT-4, in the test with U-251 and with TK-10 was > 100 µM (inactive) each time. For the same compound, the GI50 in the test on UO-31 was > 100 µM (inactive).
Regarding `C/C(=N\NC(=N)N)C(CN(C)C)C(c1ccccc1)c1c(O)c2ccccc2oc1=O` (stereo not drawn), the GI50 in the test with IGROV-1 is > 100 µM (inactive); in the test on MDA-MB-231, > 100 µM (inactive); in the test with HCT-15, more than 100 µM; with Malme-3M it was > 100 µM (inactive); in the test with NCI-H226, > 100 µM (inactive); with NCI-H460, > 100 µM (inactive). Moreover, the GI50 in the test on SK-MEL-28 was > 100 µM (inactive); in the test on RPMI-8226 it was > 100 µM (inactive); with ACHN, > 100 µM (inactive); in the test on SF-295 it was > 100 µM (inactive); in the test with UACC-62 it was > 47.6 µM (inactive); with A549, > 100 µM (inactive). In addition, the GI50 is 98.4 µM (inactive) with SNB-75; > 100 µM (inactive) in the test with EKVX; > 100 µM (inactive) in the test on SK-MEL-5; > 100 µM (inactive) in the test on MOLT-4; > 100 µM (inactive) with U-251; > 100 µM (inactive) in the test on TK-10. Besides, the GI50 in the test on UO-31 is > 100 µM (inactive).
On to `COC[C@H](C)/N=C/N1CCc2ccccc2C1(Cc1ccccc1)Cc1ccccc1`, for which the GI50 is 68.1 µM (inactive) in the test on IGROV-1; 11 µM with HCT-15; 11.8 µM (inactive) in the test on Malme-3M; 18.5 µM (inactive) in the test with NCI-H226; 12 µM (inactive) in the test with NCI-H460; 11.1 µM (inactive) in the test on SK-MEL-28. Besides, the GI50 with RPMI-8226 is 15.8 µM (inactive); with ACHN, 21.2 µM (inactive); in the test on SF-295 it was 14.5 µM (inactive); with UACC-62, 26.9 µM (inactive); with RXF 393, 15.2 µM (inactive); in the test with A549, 30.4 µM (inactive). The GI50 in the test with SNB-75 was 17.8 µM (inactive); in the test on EKVX it was 29.9 µM (inactive); in the test with SK-MEL-5, 47.9 µM (inactive); in the test with MOLT-4, 10.4 µM (inactive); in the test on U-251, 13.8 µM (inactive); in the test on TK-10, 17.8 µM (inactive). Besides, the GI50 in the test on UO-31 was 12.9 µM (inactive).
Consider `Cc1ccc(NC(=O)C(=O)C2C(=O)NC(=O)NC2=O)cc1C`, for which the GI50 is > 100 µM (inactive) in the test on IGROV-1; more than 100 µM with HCT-15; > 100 µM (inactive) in the test on Malme-3M; > 100 µM (inactive) with NCI-H226; > 100 µM (inactive) in the test on NCI-H460; > 100 µM (inactive) in the test with SK-MEL-28. Also, the GI50 with RPMI-8226, in the test with ACHN, with SF-295, in the test with UACC-62, with RXF 393 and in the test with A549 was > 100 µM (inactive) throughout. Further, the GI50 in the test with SNB-75, in the test on EKVX, in the test on SK-MEL-5, in the test on MOLT-4, with U-251 and in the test with TK-10 was > 100 µM (inactive) throughout. For the same compound, the GI50 with UO-31 is > 100 µM (inactive).
For `COc1cc(COC(=O)NC(Cc2cccs2)C(=O)O)c([N+](=O)[O-])cc1OC` (stereo not drawn), the GI50 in the test with IGROV-1 is > 100 µM (inactive); with HCT-15, more than 100 µM; with Malme-3M it was > 100 µM (inactive); in the test with NCI-H226, > 100 µM (inactive); in the test on NCI-H460, > 100 µM (inactive); in the test on SK-MEL-28 it was > 100 µM (inactive). The GI50 with RPMI-8226, with ACHN, in the test with SF-295, in the test on UACC-62, with RXF 393 and with A549 was > 100 µM (inactive) throughout. The GI50 was 59.2 µM (inactive) in the test on SNB-75; > 100 µM (inactive) with EKVX; > 100 µM (inactive) with SK-MEL-5; > 100 µM (inactive) in the test with MOLT-4; > 100 µM (inactive) with U-251; > 100 µM (inactive) in the test with TK-10. The GI50 in the test on UO-31 was > 100 µM (inactive).
On to `CC(=O)OC1CC2c3cccc4c3C(CC2N(C)C1=O)CN4C(=O)c1ccccc1` (stereo not drawn), for which the GI50 is 14.6 µM (inactive) in the test with IGROV-1; 12.6 µM (inactive) in the test with MDA-MB-231; 14.5 µM in the test on HCT-15; 20.7 µM (inactive) with NCI-H226; 21.6 µM (inactive) in the test with SK-MEL-28; 26.6 µM (inactive) with RPMI-8226. Moreover, the GI50 was 20 µM (inactive) in the test on ACHN; 23.2 µM (inactive) in the test on SF-295; 20.3 µM (inactive) in the test on UACC-62; 17.5 µM (inactive) in the test with A549; 22.1 µM (inactive) in the test on EKVX; 14.4 µM (inactive) with SK-MEL-5. Besides, the GI50 in the test with MOLT-4 was 20.9 µM (inactive); with U-251 it was 15.7 µM (inactive); with TK-10, 29.8 µM (inactive); in the test on UO-31, 16 µM (inactive).
`O=C(/C=C/c1c(O)ccc2ccccc12)c1ccccc1`: the GI50 in the test on IGROV-1 was > 100 µM (inactive); in the test on HCT-15, more than 100 µM; in the test on Malme-3M, > 100 µM (inactive); in the test with NCI-H226 it was > 100 µM (inactive); in the test with NCI-H460 it was > 100 µM (inactive); in the test on SK-MEL-28, > 100 µM (inactive). Besides, the GI50 in the test on RPMI-8226 was 27 µM (inactive); with ACHN, > 100 µM (inactive); with SF-295, > 100 µM (inactive); with UACC-62, > 100 µM (inactive); in the test with RXF 393, > 100 µM (inactive); in the test on A549, > 100 µM (inactive). Further, the GI50 in the test on SNB-75 was 0.413 µM (active); in the test on EKVX it was > 100 µM (inactive); in the test on SK-MEL-5, > 100 µM (inactive); in the test with MOLT-4 it was > 100 µM (inactive); with U-251, > 100 µM (inactive); in the test on TK-10, > 100 µM (inactive). In addition, the GI50 in the test with UO-31 is > 100 µM (inactive).
As to `COC(=O)c1onc(-c2c(OC)cc(OC)cc2OC)c1C(=O)OC`, the GI50 in the test on IGROV-1 was > 100 µM (inactive); in the test with HCT-15 it was more than 100 µM; in the test on Malme-3M it was > 100 µM (inactive); in the test on NCI-H226 it was > 100 µM (inactive); with NCI-H460, > 100 µM (inactive); with SK-MEL-28, > 100 µM (inactive). For the same compound, the GI50 with RPMI-8226, with ACHN, in the test with SF-295, with UACC-62, in the test with RXF 393 and with A549 was > 100 µM (inactive) in each case. The GI50 in the test on SNB-75, in the test with EKVX, in the test on SK-MEL-5, in the test on MOLT-4, in the test with U-251 and with TK-10 was > 100 µM (inactive) throughout. For the same compound, the GI50 in the test with UO-31 was > 100 µM (inactive).
Take `CCOC(=O)Nn1c(C)cc(C(=O)OC)c1C`: the GI50 is > 100 µM (inactive) in the test with IGROV-1; more than 100 µM in the test on HCT-15; > 100 µM (inactive) in the test on Malme-3M; > 100 µM (inactive) with NCI-H226; > 100 µM (inactive) with NCI-H460; > 100 µM (inactive) with SK-MEL-28. Also, the GI50 with RPMI-8226, in the test with ACHN, in the test with SF-295, in the test with UACC-62, in the test on RXF 393 and in the test with A549 was > 100 µM (inactive) in each case. In addition, the GI50 with SNB-75, with EKVX, with SK-MEL-5, in the test with MOLT-4, with U-251 and in the test with TK-10 was > 100 µM (inactive) throughout. Also, the GI50 in the test on UO-31 is > 100 µM (inactive).
Turning to `O=C(O)CCC(=O)N1C/C(=C\c2ccccc2)C(=O)/C(=C/c2ccccc2)C1`, the GI50 in the test with IGROV-1 was 3.45 µM (inactive); with HCT-15, 2.06 µM; in the test on Malme-3M it was 2.33 µM (inactive); in the test on NCI-H226, 18 µM (inactive); in the test with NCI-H460, 8.22 µM (inactive); in the test on SK-MEL-28, 1.97 µM (inactive). The GI50 is 2.42 µM (inactive) with RPMI-8226; 2.07 µM (inactive) in the test with ACHN; 2.44 µM (inactive) in the test on SF-295; 1.26 µM (inactive) with UACC-62; 3.67 µM (inactive) in the test with RXF 393; 19.1 µM (inactive) in the test with A549. The GI50 is 6.82 µM (inactive) with SNB-75; 5.02 µM (inactive) in the test on EKVX; 2.65 µM (inactive) in the test on SK-MEL-5; 2.34 µM (inactive) in the test with MOLT-4; 1.78 µM (inactive) in the test with U-251; 9.1 µM (inactive) with TK-10. Besides, the GI50 in the test with UO-31 is 18.6 µM (inactive).

The values are drawn from ChEMBL document CHEMBL1201862, “PubChem BioAssay data set” (2004).
